Measurements taken from patent publication US20240246918A1, “COMPOUNDS AND COMPOSITIONS AS EIF4E INHIBITORS AND THE USES THEREOF” (Ribometrix, Inc., priority 2022, published 2024).

Tests used:
human eIF4E protein = molecular target: T1, human eIF4E protein (Homo sapiens, UniProt P06730); experiment: Biochemical competitive binding assay (TR-FRET competition, EDA-m7GDP-ATTO-647N probe); conditions: read-out: hEIF4E TR-FRET IC50
T1 construct: purchased Novus NBP-45314
Protocol: The potencies of compounds binding to human eIF4E protein were measured using a 384-well time-resolved fluorescence resonance energy transfer (TR-FRET) competition assay. The assay was performed in assay buffer containing 50 mM HTEPES pH 7.5, 100 mM KCl, 0.02% Tween-20, and 0.1 mg/mL bovine serum albumin (BSA). The reaction volume was 10 μL and each reaction contained 4 nM recombinant 6×HIS-tagged human EIF4E protein (Novus, NBP-45314), 5 nM EDA-m7GDP-ATTO-647N (Jena Bioscience, NU-827-647N), 2.5 nM Europium conjugated Anti-6×HIS antibody (PerkinElmer, AD0402) and varying concentrations of compound. The final DMSO concentration was […].
Compounds were prepared using 11-point, 4-fold serial dilutions in DMSO and 100 nL of diluted compounds were transferred to 384-well assay-ready plates. Recombinant human EIF4E protein at 2× final concentration (8 nM) was pre-incubated with Eu-anti-6×HIS antibody at 2× final concentration (5 nM) for 5 minutes, then 5 μL of the protein solution was added to assay-ready plates. The protein/compound mix was incubated for 15 minutes, after which 5 μL of a solution containing EDA-m7GDP-ATTO-647N probe at 2× final concentration (10 nM) was added. After a subsequent 15-minute incubation, time-resolved fluorescence of assay plates was measured using a Clariostar Plus microplate reader (BMG Labtech) and TR-FRET values were calculated by taking a ratio of the 665 to 620 wavelength signals. After normalization to the average of DMSO control and maximum inhibition control wells, concentration-response data were plotted and standard 4-parameter curve fitting (PEI Signals) was utilized to determine IC50 values.

[1] = tested on: COLO 205 colorectal tumor cells; experiment: Tumor cell viability inhibition assay (CellTiter-Glo 2.0, 72 hours); type: cell-based; conditions: COLO 205 cell viability
Protocol: The effect of compound treatment on COLO 205 tumor cell viability was assessed using cellular ATP quantification methods (Promega CellTiter-Glo® 2.0, G9241), as follows. Test compounds were prepared using 11-point, 4-fold serial dilutions in DMSO and 100 nL of diluted compounds were transferred to 384-well assay-ready plates. COLO 205 (ATCC, CCL-222) colorectal tumor cells were seeded to assay-ready plates in RPMI-1640 medium supplemented with 10% FBS at 1500 cells in a volume of 33.5 microliters per well. After 72 hours of compound treatment, cellular ATP was assessed by CellTiter-Glo® 2.0 Cell Viability Assay method, according to the manufacturer's instructions. Luminescence was measured using a Clariostar Plus microplate reader (BMG Labtech) or equivalent. After normalization to the average of DMSO control and maximum inhibition control wells, concentration-response data were plotted and standard 4-parameter curve fitting (PEI Signals) was utilized to determine IC50

T1 sequence (P06730 whole entry): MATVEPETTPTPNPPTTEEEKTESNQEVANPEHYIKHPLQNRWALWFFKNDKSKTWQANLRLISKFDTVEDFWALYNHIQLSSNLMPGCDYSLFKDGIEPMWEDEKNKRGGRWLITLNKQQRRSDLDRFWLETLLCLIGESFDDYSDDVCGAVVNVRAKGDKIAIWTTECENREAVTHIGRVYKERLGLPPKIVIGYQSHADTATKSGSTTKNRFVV

Row | SMILES | IC50 (human eIF4E protein) [µM] | IC50 ([1]; Homo sapiens, COLO 205, 72 h) [µM] | IC50 [1] [µM]
1 | Cc1cc(-c2cc(Cl)ccc2OCCn2c(C)nc3c(c2=O)C[C@@H](N2[C@@H]4CC[C@H]2C[C@@H](OC(F)(F)F)C4)CC3)c2scc(C(=O)O)c2n1 (single isomer, unassigned) [Compound 396] | < 0.1 | < 5 | –
2 | Cc1cc(-c2cc(Cl)ccc2OCCn2c(C)nc3c(c2=O)C[C@@H](N2[C@@H]4CC[C@H]2C[C@H](OC(F)(F)F)C4)CC3)c2scc(C(=O)O)c2n1 (single isomer, unassigned) [Compound 397] | 0.1 to 0.5 | 5 to 20 | –
3 | Cc1cc(-c2cc(Cl)ccc2OCCn2c(C)nc3c(c2=O)C[C@H](N2[C@@H]4CC[C@H]2C[C@@H](OC(F)(F)F)C4)CC3)c2scc(C(=O)O)c2n1 (single isomer, unassigned) [Compound 398] | 0.1 to 0.5 | > 20 | –
4 | Cc1cc(-c2cc(Cl)ccc2OCCn2c(C)nc3c(c2=O)C[C@H](N2[C@@H]4CC[C@H]2C[C@H](OC(F)(F)F)C4)CC3)c2scc(C(=O)O)c2n1 (single isomer, unassigned) [Compound 399] | < 0.1 | < 5 | –
5 | CO[C@H]1CCN([C@@H]2CCc3nc(C)n(CCOc4ccc(Cl)cc4-c4cc(C)nc5c(C(=O)O)csc45)c(=O)c3C2)CC1(C)C (single isomer, unassigned) [Compound 415] | < 0.1 | < 5 | –
6 | Cc1cc(-c2cc(Cl)ccc2OCCn2c(C)nc3c(c2=O)CC(N2CCC(OC(F)(F)F)CC2)CC3)c2scc(C(=O)NS(=O)(=O)C(F)F)c2n1 (single isomer, unassigned) [Compound 416] | < 0.1 | 5 to 20 | –
7 | Cc1cc(-c2cc(Cl)ccc2OCCn2c(C)nc3c(c2=O)CC(N2CCC(OC(F)(F)F)CC2)CC3)c2scc(C(=O)NS(=O)(=O)C3CC3)c2n1 (single isomer, unassigned) [Compound 417] | < 0.1 | < 5 | –
8 | Cc1cc(-c2cc(Cl)ccc2OCCn2c(C)nc3c(c2=O)C[C@H](N2CCC(c4ccc(F)cc4F)CC2)CC3)c2scc(C(=O)O)c2n1 (single isomer, unassigned) [Compound 418] | < 0.1 | < 5 | –
9 | Cc1cc(-c2cc(Cl)ccc2OCCn2c(C)nc3c(c2=O)C[C@@H](N2CCC(c4ccc(F)cc4F)CC2)CC3)c2scc(C(=O)O)c2n1 (single isomer, unassigned) [Compound 419] | < 0.1 | < 5 | –
10 | Cc1cc(-c2cc(Cl)ccc2OCCn2c(C)nc3c(c2=O)C[C@H](N2CCC4(CCCO4)CC2)CC3)c2scc(C(=O)O)c2n1 (single isomer, unassigned) [Compound 420] | < 0.1 | 5 to 20 | –
11 | Cc1cc(-c2cc(Cl)ccc2OCCn2c(C)nc3c(c2=O)C[C@@H](N2CCC4(CCCO4)CC2)CC3)c2scc(C(=O)O)c2n1 (single isomer, unassigned) [Compound 421] | < 0.1 | < 5 | –
12 | Cc1cc(-c2cc(Cl)ccc2OCCn2c(C)nc3c(c2=O)C[C@H](N2CCC(n4ccnn4)CC2)CC3)c2scc(C(=O)O)c2n1 (single isomer, unassigned) [Compound 422] | < 0.1 | 5 to 20 | –
13 | Cc1cc(-c2cc(Cl)ccc2OCCn2c(C)nc3c(c2=O)C[C@@H](N2CCC(n4ccnn4)CC2)CC3)c2scc(C(=O)O)c2n1 (single isomer, unassigned) [Compound 423] | < 0.1 | 5 to 20 | –
14 | Cc1cc(-c2cc(Cl)ccc2OCCn2c(C)nc3c(c2=O)C[C@H](N2CCC4(CC2)COCCO4)CC3)c2scc(C(=O)O)c2n1 (single isomer, unassigned) [Compound 424] | < 0.1 | < 5 | –

Continued, values first:

Row | IC50 (human eIF4E protein) [µM] | IC50 ([1]; Homo sapiens, COLO 205, 72 h) [µM] | IC50 [1] [µM] | SMILES
15 | < 0.1 | < 5 | – | Cc1cc(-c2cc(Cl)ccc2OCCn2c(C)nc3c(c2=O)C[C@H](N2CCC4(CC2)CC4(F)F)CC3)c2scc(C(=O)O)c2n1 (single isomer, unassigned) [Compound 390]
16 | < 0.1 | < 5 | – | Cc1cc(-c2cc(Cl)ccc2OCCn2c(C)nc3c(c2=O)C[C@@H](N2CCC4(CC2)CC4(F)F)CC3)c2scc(C(=O)O)c2n1 (single isomer, unassigned) [Compound 391]
17 | < 0.1 | < 5 | – | Cc1cc(-c2cc(Cl)ccc2OCCn2c(C)nc3c(c2=O)C[C@@H](N2CC[C@H](OC(F)(F)F)C(C)(C)C2)CC3)c2scc(C(=O)O)c2n1 (single isomer, unassigned) [Compound 392]
18 | < 0.1 | 5 to 20 | – | Cc1cc(-c2cc(Cl)ccc2OCCn2c(C)nc3c(c2=O)C[C@@H](N2CC[C@@H](OC(F)(F)F)C(C)(C)C2)CC3)c2scc(C(=O)O)c2n1 (single isomer, unassigned) [Compound 393]
19 | < 0.1 | < 5 | – | Cc1cc(-c2cc(Cl)ccc2OCCn2c(C)nc3c(c2=O)C[C@H](N2CC[C@H](OC(F)(F)F)C(C)(C)C2)CC3)c2scc(C(=O)O)c2n1 (single isomer, unassigned) [Compound 394]
20 | < 0.1 | 5 to 20 | – | Cc1cc(-c2cc(Cl)ccc2OCCn2c(C)nc3c(c2=O)C[C@H](N2CC[C@@H](OC(F)(F)F)C(C)(C)C2)CC3)c2scc(C(=O)O)c2n1 (single isomer, unassigned) [Compound 395]
21 | < 0.1 | < 5 | – | Cc1cc(-c2cc(Cl)ccc2OCCn2c(C)nc3c(c2=O)C[C@H](N2CCCC(F)(F)CC2)CC3)c2scc(C(=O)O)c2n1 (single isomer, unassigned) [Compound 401]
22 | < 0.1 | < 5 | – | Cc1cc(-c2cc(Cl)ccc2OCCn2c(C)nc3c(c2=O)C[C@@H](N2CCCC(F)(F)CC2)CC3)c2scc(C(=O)O)c2n1 (single isomer, unassigned) [Compound 402]
23 | < 0.1 | 5 to 20 | – | Cc1cc(-c2cc(Cl)ccc2OCCn2c(C)nc3c(c2=O)C[C@H](N2CC[C@@H](OC(F)(F)F)C(F)(F)C2)CC3)c2scc(C(=O)O)c2n1 (single isomer, unassigned) [Compound 403]
24 | < 0.1 | 5 to 20 | – | Cc1cc(-c2cc(Cl)ccc2OCCn2c(C)nc3c(c2=O)C[C@H](N2CC[C@H](OC(F)(F)F)C(F)(F)C2)CC3)c2scc(C(=O)O)c2n1 (single isomer, unassigned) [Compound 404]
25 | < 0.1 | 5 to 20 | – | Cc1cc(-c2cc(Cl)ccc2OCCn2c(C)nc3c(c2=O)C[C@@H](N2CC[C@@H](OC(F)(F)F)C(F)(F)C2)CC3)c2scc(C(=O)O)c2n1 (single isomer, unassigned) [Compound 405]
26 | < 0.1 | 5 to 20 | – | Cc1cc(-c2cc(Cl)ccc2OCCn2c(C)nc3c(c2=O)C[C@@H](N2CC[C@H](OC(F)(F)F)C(F)(F)C2)CC3)c2scc(C(=O)O)c2n1 (single isomer, unassigned) [Compound 406]
27 | < 0.1 | < 5 | – | Cc1cc(-c2cc(Cl)ccc2OCCn2c(C)nc3c(c2=O)C[C@@H](N2CCC(COC(F)(F)F)CC2)CC3)c2scc(C(=O)O)c2n1 (single isomer, unassigned) [Compound 407]
28 | < 0.1 | 5 to 20 | – | Cc1cc(-c2cc(Cl)ccc2OCCn2c(C)nc3c(c2=O)C[C@H](N2CCCC[C@H]2C)CC3)c2scc(C(=O)O)c2n1 (single isomer, unassigned) [Compound 408]
29 | < 0.1 | > 20 | – | Cc1cc(-c2cc(Cl)ccc2OCCn2c(C)nc3c(c2=O)C[C@@H](N2CCCC[C@@H]2C)CC3)c2scc(C(=O)O)c2n1 (single isomer, unassigned) [Compound 409]
30 | < 0.1 | – | 5 to 20 | COC1CCN(C2CCc3nc(C)n(CC#Cc4ccc(Cl)cc4-c4ccnc5c(C(=O)O)csc45)c(=O)c3C2)CC1 (single isomer, unassigned) [Compound 410]
31 | < 0.1 | < 5 | – | Cc1cc(-c2cc(Cl)ccc2OCCn2c(C)nc3c(c2=O)C[C@H](NC24CC5CC(CC(C5)C2)C4)CC3)c2scc(C(=O)O)c2n1 (single isomer, unassigned) [Compound 412]
32 | < 0.1 | 5 to 20 | – | Cc1cc(-c2cc(Cl)ccc2OCCn2c(C)nc3c(c2=O)C[C@@H](NC24CC5CC(CC(C5)C2)C4)CC3)c2scc(C(=O)O)c2n1 (single isomer, unassigned) [Compound 413]
33 | < 0.1 | < 5 | – | COC1CCN(C2CCc3nc(C)n(CC#Cc4ccc(Cl)cc4-c4ccnc5c(C(=O)NS(C)(=O)=O)csc45)c(=O)c3C2)CC1 (single isomer, unassigned) [Compound 414]
